Earlier results as cited in patent US5972966A, “Inhibitors of farnesyl-protein transferase” (Merck & Co., Inc., priority 1997, dated 1999).

Tests used:
[1] = system: farnesyl-protein transferase; settings: by inhibiting HMG-CoA reductase
Ras processing in cells = settings: by inhibiting the rate-limiting step in the isoprenoid biosynthetic pathway

Row | SMILES | Indirect inhibition of farnesyl-protein transferase in vivo [1] | blocking of Ras processing in cells (Ras processing in cells)
1 | CC[C@H](C)C(=O)O[C@H]1CCC=C2C=C[C@H](C)[C@H](CC[C@@H]3C[C@@H](O)CC(=O)O3)[C@H]21 [compactin] | Indirect inhibition | 
2 | CC[C@H](C)C(=O)O[C@H]1C[C@@H](C)C=C2C=C[C@H](C)[C@H](CC[C@@H]3C[C@@H](O)CC(=O)O3)[C@H]21 [lovastatin] | Indirect inhibition | blocks Ras processing in cells
